# Source: patent US8124361B2, “Methods of screening for sweet taste modulators” (Givaudan SA, priority 2006, dated 2012)
# Test system: sweet sensitive panelists
# Assay: Ranking test of sweetness isointensity (R-index), sensory panel
# Assay type: in vivo, human
# Conditions: for sample sweetness (0.5% sucrose) / sample sweetness (p-ethoxybenzaldehyde, 75 ppm): nose clips
# Procedure: (§1) The sensory evaluation was conducted using a ranking method. Samples at ambient temperature were randomly presented in 15 ml blind aliquots (unidentifiable by panelists). Panels consisted of 10 sweet sensitive subjects and samples were presented in 3 replications over 1 session. After tasting each sample, the mouth was rinsed thoroughly with water at ambient temperature prior to tasting the next sample. […] They were asked to rank the samples from low to high with respect to perceived sweet taste.
# as §1, with “taste. […] From ranking-style sensory tests, a matrix of responses (see table X below) is constructed such that each cell contains the number of times a given sample was ranked at a particular location.” for “taste.”
# Essentially, the R-index is a measure of difference between two samples. The R-index has a chance level of detection of 50%. […] The critical value is the statistically relevant value that the derived R-index must deviate from (i.e greater or less than) in order to be considered significant.
compound,measurement,setting,value
CCOc1ccc(C=O)cc1 [p-ethoxybenzaldehyde],sample sweetness (0.5% sucrose),0.5% sucrose sample ranked against 100 ppm p-ethoxybenzaldehyde in water,isosweet
same,sample sweetness (0.5% sucrose),0.5% sucrose sample ranked against 150 ppm p-ethoxybenzaldehyde in water,less sweet
same,sweetness isointensity to sucrose,7% sucrose and 75 ppm p-ethoxybenzaldehyde,8 % sucrose
same,"sample sweetness (p-ethoxybenzaldehyde, 75 ppm)",75 ppm in water vs 0.5% sucrose,less sweet
same,"sample sweetness (p-ethoxybenzaldehyde, 75 ppm)",75 ppm in water vs 1% sucrose,less sweet
same,p-ethoxybenzaldehyde sample sweetness,75 ppm p-ethoxybenzaldehyde in 7% sucrose vs 7% sucrose,sweeter
same,p-ethoxybenzaldehyde sample sweetness,75 ppm p-ethoxybenzaldehyde in 7% sucrose vs 8% sucrose,isosweet
same,p-ethoxybenzaldehyde sample sweetness,75 ppm p-ethoxybenzaldehyde in 7% sucrose vs 9% sucrose,less sweet
same,p-ethoxybenzaldehyde sample sweetness,75 ppm p-ethoxybenzaldehyde in 7% sucrose vs 10% sucrose,less sweet
same,p-ethoxybenzaldehyde sample sweetness,75 ppm p-ethoxybenzaldehyde in 7% sucrose vs 11% sucrose,less sweet
same,sweetness equivalent to sucrose (isointensity),"75 ppm p-ethoxybenzaldehyde in water, by interpolation, below the detection threshold for sweet",0.25 % sucrose
same,"sample sweetness (p-ethoxybenzaldehyde, 100 ppm)",100 ppm in water vs 150 ppm cyclamate,isosweet
same,"sample sweetness (p-ethoxybenzaldehyde, 100 ppm)",100 ppm in water vs 200 ppm cyclamate,less sweet
same,"sample sweetness (p-ethoxybenzaldehyde, 100 ppm)",100 ppm in water vs 250 ppm cyclamate,less sweet
same,cyclamate equivalent in sweetness added,100 ppm p-ethoxybenzaldehyde added to 1700 ppm cyclamate,400 ppm cyclamate
same,p-ethoxybenzaldehyde sample sweetness,100 ppm p-ethoxybenzaldehyde in 1700 ppm cyclamate vs 1700 ppm cyclamate,sweeter
same,p-ethoxybenzaldehyde sample sweetness,100 ppm p-ethoxybenzaldehyde in 1700 ppm cyclamate vs 1900 ppm cyclamate,sweeter
same,p-ethoxybenzaldehyde sample sweetness,100 ppm p-ethoxybenzaldehyde in 1700 ppm cyclamate vs 2100 ppm cyclamate,isosweet
same,p-ethoxybenzaldehyde sample sweetness,100 ppm p-ethoxybenzaldehyde in 1700 ppm cyclamate vs 2300 ppm cyclamate,less sweet
same,p-ethoxybenzaldehyde sample sweetness,100 ppm p-ethoxybenzaldehyde in 1700 ppm cyclamate vs 2500 ppm cyclamate,less sweet
same,sweetness A versus B,600 ppm (A) vs 700 ppm (B) p-ethoxybenzaldehyde in water,less sweet than
same,sweetness A versus B,700 ppm (A) vs 800 ppm (B) p-ethoxybenzaldehyde in water,less sweet than
same,sweetness A versus B,800 ppm (A) vs 900 ppm (B) p-ethoxybenzaldehyde in water,less sweet than
same,sweetness A versus B,900 ppm (A) vs 1000 ppm (B) p-ethoxybenzaldehyde in water,less sweet than
same,cyclamate isointensity,1700 ppm cyclamate+100 ppm p-ethoxybenzaldehyde,2100 ppm cyclamate
